Counter-ions that a name gives are not always drawn. Blank lines part the entries; values can stand above or below the compound they belong to.
Assays:
Assay type in all cases: physicochemical
[1] = Aqueous chemical stability, 50 mM phosphate buffer pH 8, HPLC-UV (Table 4); details: 50 mM buffer phosphate pH 8, 37° C., HPLC UV 211 nm
Procedure: Stock solutions of the compounds in acetonitrile or acetonitrile/MeOH were prepared at 0.05M. A 0.010 mL aliquot of the stock was spiked into 1 mL of 50 mM buffer phosphate pH 8 and incubated at 37° C. Typically, aliquots (0.010 mL) were sampled at different time points and immediately injected in the HPLC with UV detection (211 nm). The peak areas corresponding to the compounds were plotted against time and the data were fitted to a first-order mono-exponential decay where the rate constant and the half-life were determined from the slope (Table 4).

[2] = Aqueous chemical stability, 100 mM phosphate buffer, HPLC (Table 3); details: buffer phosphate (100 mM), 37° C., half-lives >360 min estimated from initial slope
Procedure: Stock solutions of the compounds in acetonitrile or acetonitrile/methanol were prepared at 20 mg/mL and 20 μL, spiked into 3 mL of buffer phosphate (100 mM) and incubated at 37° C. Aliquots (50 μL) were sampled at different time points and diluted 20 fold with ammonium formate (pH 3.5)/acetonitrile. The diluted samples were analyzed by HPLC. The peak areas corresponding to the compounds were plotted against time and the data were fitted to a first-order mono-exponential decay where the rate constant and the half-life were determined (Table 3).

[3] = Physical stability in crystalline form by thermogravimetric analysis (TGA); details: DMF loss in less than 4 hours
Procedure: The physical stability of compounds of the present invention and DMF were measured via thermogravimetric analysis (TGA).

SMILES: COC(=O)/C=C/C(=O)OCCN(CC(=O)O)CC(=O)O [Compound 1, (E)-2,2′-((2-((4-methoxy-4-oxobut-2-enoyl)oxy)ethyl)azanediyl)diacetic acid hydrochloride]
pH 8 (t ½, min) [1]: 15 min
pH 8 (t ½, min) [2]: 15 min

SMILES: COC(=O)/C=C/C(=O)OC(C)CN(C)C (centres unmarked) [Compound 6, 1-(dimethylamino)propan-2-yl methyl fumarate hydrochloride]
pH 8 (t ½, min) [1]: 2 min
pH 8 (t ½, min) [2]: 2.0 min

SMILES: COC(=O)/C=C/C(=O)OCCN1CCSCC1 [Compound 7, Methyl (2-thiomorpholinoethyl) fumarate hydrochloride]
pH 8 (t ½, min) [2]: 26.0 min

SMILES: COC(=O)/C=C/C(=O)OCCNc1ccccc1 [Compound 8, Methyl (2-(phenylamino)ethyl) fumarate hydrochloride]
pH 8 (t ½, min) [2]: 36.0 min

SMILES: COC(=O)/C=C/C(=O)OCC(C)(C)N(C)C [Compound 9, 2-(dimethylamino)-2-methylpropyl methyl fumarate hydrochloride]
pH 8 (t ½, min) [2]: 7.0 min

SMILES: COC(=O)/C=C/C(=O)OCCN1CCS(=O)(=O)CC1 [Compound 11, 2-(1,1-dioxidothiomorpholino)ethyl methyl fumarate hydrochloride]
pH 8 (t ½, min) [2]: >240 min

SMILES: COC(=O)/C=C/C(=O)OCCN1CCCCC1 [Compound 15, Methyl (2-(piperidin-1-yl)ethyl) fumarate hydrochloride]
pH 8 (t ½, min) [2]: 3.0 min

SMILES: COC(=O)/C=C/C(=O)OCCN1CCCC1 [Compound 18, Methyl (2-(pyrrolidin-1-yl)ethyl) fumarate hydrochloride]
pH 8 (t ½, min) [2]: 5.0 min

SMILES: CCN(CC)CCOC(=O)/C=C/C(=O)OC [Compound 20, 2-(diethylamino)ethyl methyl fumarate hydrochloride]
pH 8 (t ½, min) [2]: 5.0 min

SMILES: COC(=O)/C=C/C(=O)OCCN1C(=O)C2CC2C1=O (centres unmarked) [Compound 22, 2-(2,4-Dioxo-3-azabicyclo[3.1.0]hexan-3-yl)ethyl methyl fumarate]
pH 8 (t ½, min) [1]: 144 min

SMILES: COC(=O)/C=C/C(=O)OCC[N+]1([O-])CCOCC1 [Compound 26, (E)-4-(2-((4-methoxy-4-oxobut-2-enoyl)oxy)ethyl)morpholine 4-oxide]
pH 8 (t ½, min) [1]: 129 min

SMILES: COC(=O)/C=C/C(=O)OCCN1C(=O)COCC1=O [Compound 27, 2-(3,5-dioxomorpholino)ethyl methyl fumarate]
pH 8 (t ½, min) [1]: 37 min

SMILES: COC(=O)/C=C/C(=O)OCCN1CCOC(=O)C1 [Compound 31, Methyl (2-(2-oxomorpholino)ethyl) fumarate hydrochloride]
pH 8 (t ½, min) [1]: 26 min

SMILES: COC(=O)/C=C/C(=O)OCCN1CC2CCC(C1)O2 [Compound 32, 2-(8-Oxa-3-azabicyclo[3.2.1]octan-3-yl)ethyl methyl fumarate hydrochloride]
pH 8 (t ½, min) [1]: 13 min

SMILES: COC(=O)/C=C/C(=O)OCCN1CCCC1=O [Compound 38, Methyl (2-(2-oxopyrrolidin-1-yl)ethyl) fumarate]
pH 8 (t ½, min) [1]: 201 min

SMILES: COC(=O)/C=C/C(=O)OCCN1C(=O)NC(C)(C)C1=O [Compound 40, 2-(4,4-Dimethyl-2,5-dioxoimidazolidin-1-yl)ethyl methyl fumarate]
pH 8 (t ½, min) [1]: 203 min

SMILES: COC(=O)/C=C/C(=O)OCCNC(=O)OC(C)(C)C [Compound 48, 2-((tert-butoxycarbonyl)amino)ethyl methyl fumarate]
pH 8 (t ½, min) [1]: 220 min

SMILES: COC(=O)/C=C/C12COC(C)(CO1)CO2 [Compound 130, (E)-Methyl 3-(4-methyl-2,5,7-trioxabicyclo[2.2.2]octan-1-yl)acrylate]
pH 8 (t ½, min) [1]: 1010 min

SMILES: COC(=O)/C=C/C(=O)OCCCN1C(=O)CCC1=O [Compound 133, 3-(2,5-Dioxopyrrolidin-1-yl)propyl methyl fumarate]
pH 8 (t ½, min) [1]: 246 min

SMILES: COC(=O)/C=C/C(=O)OC [DMF, Dimethyl fumarate, reference compound]
weight loss at 60° C. vs time [3]: ~100%

SMILES: CCN(CC)C(=O)COC(=O)/C=C/C(=O)OC [Reference Compound A, 2-(diethylamino)-2-oxoethyl methyl fumarate, reference compound]
pH 8 (t ½, min) [2]: 120 min

Other lines, results leading:

pH 8 (t ½, min) [1]: 30 min
pH 8 (t ½, min) [2]: 45 min
SMILES: COC(=O)/C=C/C(=O)OCC[N+](C)(C)C [Compound 4, (E)-2-((4-methoxy-4-oxobut-2-enoyl)oxy)-N,N,N-trimethylethanaminium iodide]

pH 8 (t ½, min) [1]: 24 min
pH 8 (t ½, min) [2]: 24 min
SMILES: COC(=O)/C=C/C(=O)OCCN1CCC(F)(F)CC1 [Compound 5, 2-(4,4-difluoropiperidin-1-yl)ethyl methyl fumarate hydrochloride]

pH 8 (t ½, min) [2]: 67.0 min
SMILES: COC(=O)/C=C/C(=O)OCCS(C)(=O)=O [Compound 10, Methyl (2-(methylsulfonyl)ethyl) fumarate]

weight loss at 60° C. vs time [3]: no change
SMILES: COC(=O)/C=C/C(=O)OCCN1C(=O)CCC1=O [Compound 14, 2-(2,5-dioxopyrrolidin-1-yl)ethyl methyl fumarate]

pH 8 (t ½, min) [2]: 20.0 min
SMILES: COC(=O)/C=C/C(=O)OCCN1CCOCC1 [Compound 16, Methyl (2-morpholinoethyl) fumarate hydrochloride]

pH 8 (t ½, min) [2]: 11.0 min
SMILES: COC(=O)/C=C/C(=O)OCCN1CCC2(CC1)OCCO2 [Compound 17, 2-(1,4-dioxa-8-azaspiro[4.5]decan-8-yl)ethyl methyl fumarate hydrochloride]

pH 8 (t ½, min) [1]: 117 min
pH 8 (t ½, min) [2]: 6.0 min
SMILES: COC(=O)/C=C/C(=O)OCCN(C)C [Compound 19, 2-(dimethylamino)ethyl methyl fumarate hydrochloride]

pH 8 (t ½, min) [1]: 186 min
SMILES: COC(=O)/C=C/C(=O)OCCN1C(=O)[C@@H](C)[C@@H](C)C1=O [Compound 23, 2-((3R,4S)-3,4-Dimethyl-2,5-dioxopyrrolidin-1-yl)ethyl methyl fumarate]

pH 8 (t ½, min) [1]: <10 min
SMILES: COC(=O)/C=C/C(=O)OCCN1CCOC(C)(C)C1 [Compound 28, 2-(2,2-dimethylmorpholino)ethyl methyl fumarate hydrochloride]

pH 8 (t ½, min) [1]: <10 min
SMILES: COC(=O)/C=C/C(=O)OCCN1CC(C)OC(C)C1 (centres unmarked) [Compound 29, 2-(2,6-dimethylmorpholino)ethyl methyl fumarate hydrochloride]

pH 8 (t ½, min) [1]: 229 min
SMILES: COC(=O)/C=C/C(=O)OCCN1CCOCC1=O [Compound 30, Methyl (2-(3-oxomorpholino)ethyl) fumarate]

pH 8 (t ½, min) [1]: 115 min
SMILES: COC(=O)/C=C/C(=O)OCCN1CCOC(CN(C)C)C1 (centres unmarked) [Compound 33, 2-(2-((Dimethylamino)methyl)morpholino)ethyl methyl fumarate hydrochloride]

pH 8 (t ½, min) [1]: 182 min
SMILES: COC(=O)/C=C/C(=O)OCCN1C(=O)CC(C)(C)C1=O [Compound 37, 2-(3,3-Dimethyl-2,5-dioxopyrrolidin-1-yl)ethyl methyl fumarate]

pH 8 (t ½, min) [1]: 183 min
SMILES: COC(=O)/C=C/C(=O)OCCN1CCOC1=O [Compound 39, Methyl (2-(2-oxooxazolidin-3-yl)ethyl) fumarate]

pH 8 (t ½, min) [1]: 158 min
SMILES: CCC(=O)N(CCOC(=O)/C=C/C(=O)OC)C(=O)CC [Compound 42, Methyl (2-(N-propionylpropionamido)ethyl) fumarate]

pH 8 (t ½, min) [1]: 177.5 min
SMILES: COC(=O)/C=C/C(=O)OCCNC(C)=O [Compound 43, 2-Acetamidoethyl methyl fumarate]

pH 8 (t ½, min) [1]: 145 min
SMILES: COC(=O)/C=C/C(=O)OCCN(C(C)=O)C(C)=O [Compound 44, 2-(N-Acetylacetamido)ethyl methyl fumarate]

pH 8 (t ½, min) [1]: 96 min
SMILES: C#CCOC(=O)/C=C/C(=O)OC [Compound 131, Methyl prop-2-yn-1-yl fumarate]
